According to patent US8481500B2, “Compounds having neuroprotective properties” (Universidad del Pais Vasco, priority 2005, dated 2013):
“Also recorded” adds a separate entry of the source.

How the values were obtained:
[1] = system: neuron cultures from the brain cortex; assay: Excitotoxic neuronal death in neuron cultures (glutamate or NMDA); type: cell-based, Sprague Dawley rat; conditions: glutamate or NMDA 50 μM for 10 minutes; antioxidant 100 nM, kept 3 hours; p<0.001 vs agonist only
Procedure: The neuron cultures were obtained from the brain cortex of Sprague Dawley rat embryos of 18 days of gestation (Larm et al., 1996, Eur J Pharmacol 314: 249-54; Cheung et al., 1998, Neuropharmacol 37: 1419-29). The cells were nourished Neurobasal medium supplemented with B27 supplement (Invitrogen).
The glutamate or NMDA (N-methyl-D-aspartate) agonists were applied, both at a concentration of 50 μM, for 10 minutes. The antioxidants, morin and mangiferin, were added during the exposure of the agonist at a concentration of 100 nM and were maintained in the medium for 3 hours until cell viability was measured by means of fluorescein diacetate. […] The values are shown as the mean±S.E.M. of the quadruplicates from 3-4 different experiments.

oligodendrocyte cultures = assay: Oligodendrocyte culture death caused by AMPA; type: cell-based; conditions: AMPA 10 μM for 5 minutes; polyphenol 10-100000 nM added 24 hours before; read 24 hours later
Procedure: The oligodendrocyte cultures were in turn incubated with AMPA [(RS)-α-amino-3-hydroxy-5-methyl-4-isoxazolepropionic hydrobromic acid] agonists, at a 10 μM concentration for 5 minutes. The polyphenols, mangiferin and morin, were added 24 hours before the exposure of the agonist and until the end of the experiments at concentrations comprised between 10 and 100000 nM, and cell viability was measured by means of calcein fluorimetry 24 hours later. The values shown in FIG. 1B show the percentage of normalized cell death±S.E.M. of the triplicates according to the logarithm of the concentration from three different experiments. *: p<0.05; **: p<0.01.

[2] = system: superoxide production in the CA1 hippocampus region; assay: Superoxide production in the CA1 hippocampus region after transient cerebral ischemia; type: in vivo, Sprague-Dawley rats; conditions: 1 day after transient global ischemia; i.p. 10 mg/kg 30 minutes after ischemia, then 5 mg/kg every 12 hours
Procedure: (§1) Four experimental groups of Sprague-Dawley rats (each group contained 20 animals) were randomly selected: control (C), ischemic (ISCH), ischemic animals treated with mangiferin (I+MNG), and ischemic animals treated with morin (I+MOR). Transient cerebral ischemia was induced by means of occlusion of the vertebral and common carotid arteries for 10 minutes. The criteria for determining cerebral ischemia were the bilateral loss of stretch reflex, limb stiffness and mydriasis. The rectal and body temperature was maintained at 37° C. during surgery and the ischemia. […] The group of control animals was treated similarly to the group with ischemia, but none of their common carotid arteries was occluded.
(§2) Mangiferin and morin were administered intraperitoneally at a concentration of 10 mg/kg of body weight, 30 minutes after the ischemic stimulus and then at a concentration of 5 mg/kg every 12 hours for 7 days.
The method described by Chan et al., 1998 (J Neurosci 18: 8292-99) was followed. […] The fluorescence was examined in cryostat sections (10 μm) and was analyzed with a fluorescence microscope (Zeiss Axiophot). The images were taken with a digital camera (Axio Vision, Zeiss) and analyzed with the Image Pro Plus program.

[3] = system: transient cerebral ischemia; assay: NeuN+ cell count in the pyramidal layer of CA1 hippocampus after transient cerebral ischemia; type: in vivo, Sprague-Dawley rats; conditions: 7 and 70 days after ischemia; compared with placebo; i.p. 10 mg/kg, then 5 mg/kg every 12 hours for 7 days
Procedure: as §1
Mangiferin and morin were administered intraperitoneally at a concentration of 10 mg/kg of body weight, 30 minutes after the ischemic stimulus and then at a concentration of 5 mg/kg every 12 hours for 7 days. […]
The number of positive NeuN cells was quantified in the pyramidal layer of the CA1 hippocampus in control rats and operated rats, and in animals subjected to transient cerebral ischemia 7 and 70 days after the reperfusion (n=4-5 animals for every experimental group). The amounts were collected both from the left and the right hemisphere of each section analyzed by immunohistochemistry, with two sections for every experiment from at least three independent experiments. […]

[4] = system: transient cerebral ischemia; assay: Classically conditioned eyelid responses after global ischemia; type: in vivo, Sprague-Dawley rats; conditions: rats subjected to global ischemia; 10 conditioning sessions
Procedure: as §1, §2
The study of the eyelid responses by means of classic conditioning was carried out in 10 Sprague-Dawley rats per experimental group. Each animal was anesthetized with ketamine (100 mg/kg) and xylazine (20 mg/kg). […]
A quantitative analysis of the classically conditioned eyelid responses from […] (C, dotted line) and mice with ischemia (ISCH, circles), and from mice with ischemia treated with mangiferin (I+MNG, squares) or morin (I+MOR, triangles), is shown in FIG. 4. […]

Molecule | excitotoxic neuronal death (cell viability by fluorescein diacetate) [1] | oligodendroglial death induced by excitotoxic stimuli (cell viability by calcein fluorimetry) (oligodendrocyte cultures) | fluorescence levels emitted by oxidized hydroethidine in neurons of the pyramidal layer of the CA1 region [2] | number of NeuN+ cells in the pyramidal layer of the CA1 hippocampus [3] | learning capacity (conditioned eyelid responses) [4]
morin | significantly attenuates excitotoxic neuronal death | protect from neuronal and oligodendroglial death | reduction | larger; also recorded: significant increase of positive NeuN^+ cells | conserve the learning capacity
O=c1c2cc(O)c(O)cc2oc2cc(O)c([C@@H]3O[C@H](CO)[C@@H](O)[C@H](O)[C@H]3O)c(O)c12 [mangiferin] | significantly attenuates excitotoxic neuronal death | protect from neuronal and oligodendroglial death | reduction | larger; also recorded: significant increase of positive NeuN^+ cells | conserve the learning capacity
